This note sets out measurements from article PMC3867986 (ACS medicinal chemistry letters, 2013).

The nature of one data set: Chemical stability. To be noted: long-term storage, HPLC analysis.
Data set [1] deals with BirA (biotin protein ligase) (Mycobacterium tuberculosis, UniProt I6YFP0). The data set is classed as binding. To be noted: direct stoichiometric titration of BirA, duplicate.
Sequence of BirA (biotin protein ligase) (I6YFP0 whole entry, looked up): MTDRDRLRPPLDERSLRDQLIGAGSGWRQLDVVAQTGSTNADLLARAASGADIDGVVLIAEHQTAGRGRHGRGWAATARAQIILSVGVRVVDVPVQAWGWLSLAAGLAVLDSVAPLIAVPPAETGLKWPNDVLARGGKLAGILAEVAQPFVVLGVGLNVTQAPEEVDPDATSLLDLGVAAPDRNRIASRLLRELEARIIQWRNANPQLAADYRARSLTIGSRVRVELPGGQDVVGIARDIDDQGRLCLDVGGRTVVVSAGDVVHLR

Regarding `CCN(CC)CC.Nc1ncnc2c1ncn2[C@@H]1O[C@H](CCS(=O)(=O)NC(=O)CCCC[C@@H]2SC[C@@H]3NC(=O)N[C@@H]32)[C@@H](O)[C@H]1O` [Compound 10], the chemical stability entry in “Chemical stability” is reported as “no degradation upon long-term storage”.
`CCN(CC)CC.Nc1nccc2c1ncn2[C@@H]1O[C@H](COS(=O)(=O)NC(=O)CCCC[C@@H]2SC[C@@H]3NC(=O)N[C@@H]32)[C@@H](O)[C@H]1O` [Compound 11]: the ΔH in data set [1] is -21.2 kcal/mol.
`CC(C)(C)C#Cc1nc(N)c2ncn([C@@H]3O[C@H](COS(=O)(=O)NC(=O)CCCC[C@@H]4SC[C@@H]5NC(=O)N[C@@H]54)[C@@H](O)[C@H]3O)c2n1.CCN(CC)CC` [Compound 13] showed a ΔH in data set [1] of -13.5 kcal/mol.
